How the values were obtained:
Assay type in all cases: cell-based
[1] = system: Human peripheral blood mononuclear cells (PBMC); assay: Cytokine induction in human cells (PBMC); conditions: 21-24 h, lowest concentration giving at least 2x negative control; for MEC to Induce Cytokine: IFN-alpha: ELISA; for MEC to Induce Cytokine: IFN-gamma / MEC to Induce Cytokine: TNF-alpha: multiplex bead assay
Protocol: Whole blood was obtained from healthy human donors and collected by venipuncture into vacutainer tubes or syringes containing EDTA. Human peripheral blood mononuclear cells (PBMC) were purified from the whole blood by density gradient centrifugation. Histopaque 1077 (15 mL, Sigma, St. Louis, MO) was transferred to 6×50 mL sterile polypropylene conical tubes. The Histopaque was overlayed with 15-25 mL of blood diluted 1:2 in Hank's Balanced Salts Solution (HBSS) (Gibco, Life Technologies, Grand Island, NY). The tubes were then centrifuged at 1370 revolutions per minute (rpm) for 30 min at 20° C., with no brake (400×g, GH 3.8A Rotor).
The interface (buffy coat) containing the PBMC was collected and placed in a new sterile 50 mL conical polypropylene centrifuge tube. The PBMC were mixed with an equal volume of HBSS (about 20 mL from the interface and about 20 mL of HBSS), and then centrifuged at 1090 rpm, 10 min, 20° C., with brake (270×g, GH 3.8A Rotor). After completing centrifugation, the cells were resuspended in 2-3 mL ACK Red blood cell lysis buffer (ammonium chloride potassium solution, Gibco, Life Technologies) and incubated for 2-5 min at 20° C. Next, HBSS (40 mL) was added to the cells, and the sample was centrifuged at 270×g for 10 min at 20° C. The supernatant was decanted, and the cell pellet was resuspended in 5 mL AIM V Medium (Gibco, Life Technologies). Cell aggregates and debris were removed by filtering the cell solution through a BD Falcon 70 micron nylon cell strainer (BD Biosciences, San Jose, CA).
The number of viable cells was determined by counting with a Miltenyi FACS instrument (Miltenyi Biotec Inc., San Diego, CA) or by using a hemacytometer. For determining cell viability with a hemacytometer, the cells were diluted 1/10 in 0.4% trypan blue and HBSS (specifically, 50 microliter of trypan blue+40 microliter of HBSS+10 microliter of cell solution were added to a microfuge tube and mixed). Ten microliters of the diluted cells were then applied to the hemacytometer, and the number of viable PBMC were determined by microscopy.
The PBMC sample was then resuspended in 96-well plates at a concentration of 8×10^5 cells/well in 0.1 mL of AIM-V medium. Each compound was solubilized in dimethyl sulfoxide (DMSO) to create a 3 mM stock solution. The stock solution was then further diluted with AIM-V medium to prepare the serial dilutions. The diluted compound (100 microliters) was then transferred to the PBMCs to produce testing sets with final compound concentrations of 30, 10, 3.3, 1.1, 0.37, 0.12, 0.04, 0.01 micromolar. The plates also had both positive and negative controls. The negative control wells contained only AIM-V medium with no example compound. The positive control wells contained a control set of imiquimod serially diluted to concentrations of 30, 10, 3.3, 1.1, 0.37, 0.12, 0.04, 0.01 micromolar. The concentrations used in the control set were selected to match the concentrations used in the testing set. The plates were then cultured at 37° C./5% CO2 for 21-24 h. Cell-free supernatants were harvested by centrifuging the 96-well plates at 2100 rpm, 23° C. for 10 min. Approximately 160 microliters of the supernatant was then stored in a NUNC 96-well plate, covered with the compression cap and stored at −80° C. until the cytokine analysis was done.
IFN-alpha cytokine levels (picograms/mL) were measured by ELISA (human IFN-alpha, pan specific, Mabtech, Cincinnati, OH). IFN-gamma and TNF-alpha levels (picograms/mL) were measured by multiplex bead assay (magnetic beads, R & D Systems, Minneapolis, MN) according to the manufacturer's instructions.
Specifically, the minimum effective concentration of each compound (micromolar) was determined as the lowest concentration of the compound that induced a measured cytokine response at a level ([…]) that was at least 2× greater than that observed with the negative control wells.

human TLR7 = biological target: T1, human TLR7 (Homo sapiens, UniProt Q9NYK1); assay: TLR activation, HEK-BLUE-hTLR7 SEAP reporter cells; conditions: HEK-BLUE-hTLR7, 16-20 h; SEAP response at least 2x vehicle control
T1 construct: host or cells: HEK293 (HEK-BLUE-hTLR7)
T1 sequence (Q9NYK1 27-1049): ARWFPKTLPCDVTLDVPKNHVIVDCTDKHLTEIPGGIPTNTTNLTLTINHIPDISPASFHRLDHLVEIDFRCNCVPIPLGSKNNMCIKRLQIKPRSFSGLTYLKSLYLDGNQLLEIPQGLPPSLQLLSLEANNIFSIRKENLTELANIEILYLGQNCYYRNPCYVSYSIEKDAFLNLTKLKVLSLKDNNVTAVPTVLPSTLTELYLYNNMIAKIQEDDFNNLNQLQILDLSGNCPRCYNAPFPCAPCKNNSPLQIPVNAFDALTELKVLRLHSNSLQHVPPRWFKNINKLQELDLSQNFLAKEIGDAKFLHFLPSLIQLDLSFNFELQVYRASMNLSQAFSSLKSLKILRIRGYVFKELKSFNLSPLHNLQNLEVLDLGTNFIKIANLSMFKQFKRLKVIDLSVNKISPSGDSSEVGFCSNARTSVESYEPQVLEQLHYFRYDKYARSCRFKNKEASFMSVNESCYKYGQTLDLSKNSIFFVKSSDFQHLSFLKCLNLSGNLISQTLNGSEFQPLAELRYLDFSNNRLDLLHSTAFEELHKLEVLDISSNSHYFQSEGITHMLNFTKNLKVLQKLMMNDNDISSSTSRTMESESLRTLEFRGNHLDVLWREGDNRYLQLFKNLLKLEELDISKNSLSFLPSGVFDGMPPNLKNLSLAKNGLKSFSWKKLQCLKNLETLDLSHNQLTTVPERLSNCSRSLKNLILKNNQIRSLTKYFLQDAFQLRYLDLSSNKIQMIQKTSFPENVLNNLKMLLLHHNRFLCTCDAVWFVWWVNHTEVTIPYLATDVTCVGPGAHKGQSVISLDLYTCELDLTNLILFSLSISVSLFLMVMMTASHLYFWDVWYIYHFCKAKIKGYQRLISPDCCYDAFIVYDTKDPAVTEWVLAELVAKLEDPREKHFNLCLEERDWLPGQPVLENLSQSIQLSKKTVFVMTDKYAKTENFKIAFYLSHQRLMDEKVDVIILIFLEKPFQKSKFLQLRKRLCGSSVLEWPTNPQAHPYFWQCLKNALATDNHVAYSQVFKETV
Protocol: (§1) HEK-BLUE-hTLR7 or hTLR8 reporter cells were obtained from InvivoGen, San Diego, CA. According to the manufacturer's description, these reporter cells were prepared by co-transfection of HEK293 cells with an inducible secreted embryonic alkaline phosphatase (SEAP) reporter gene and either the human TLR7 or TLR8 gene. The SEAP reporter gene was placed under the control of an IFN-β minimal promoter fused to five NF-κB and AP-1-binding sites. In the presence of a TLR ligand, activation of NF-κB and AP-1 occurs, resulting in a corresponding increase in SEAP levels. […]
(§2) For each compound, hTLR7, hTLR8, and their respective null control HEK cells were screened. […] Cell culture supernatants containing the SEAP reporter were collected after an incubation period of 16-20 h in a cell culture incubator (37° C. and 5% CO2), and either analyzed immediately or stored at −80° C. SEAP levels were measured using the colorimetric enzyme assay (QUANTI-BLUE (InvivoGen) according to manufacturer's instructions.
(§3) Specifically, the minimum effective concentration of each compound (micromolar) was determined as the lowest concentration of the compound that produced a SEAP expression response at least 2× greater than that observed with the vehicle control wells.

human TLR8 = biological target: T2, human TLR8 (Homo sapiens, UniProt Q9NR97); assay: TLR activation, HEK-BLUE-hTLR8 SEAP reporter cells; conditions: HEK-BLUE-hTLR8, 16-20 h; SEAP response at least 2x vehicle control
T2 construct: host or cells: HEK293 (HEK-BLUE-hTLR8)
T2 sequence (Q9NR97 27-1041): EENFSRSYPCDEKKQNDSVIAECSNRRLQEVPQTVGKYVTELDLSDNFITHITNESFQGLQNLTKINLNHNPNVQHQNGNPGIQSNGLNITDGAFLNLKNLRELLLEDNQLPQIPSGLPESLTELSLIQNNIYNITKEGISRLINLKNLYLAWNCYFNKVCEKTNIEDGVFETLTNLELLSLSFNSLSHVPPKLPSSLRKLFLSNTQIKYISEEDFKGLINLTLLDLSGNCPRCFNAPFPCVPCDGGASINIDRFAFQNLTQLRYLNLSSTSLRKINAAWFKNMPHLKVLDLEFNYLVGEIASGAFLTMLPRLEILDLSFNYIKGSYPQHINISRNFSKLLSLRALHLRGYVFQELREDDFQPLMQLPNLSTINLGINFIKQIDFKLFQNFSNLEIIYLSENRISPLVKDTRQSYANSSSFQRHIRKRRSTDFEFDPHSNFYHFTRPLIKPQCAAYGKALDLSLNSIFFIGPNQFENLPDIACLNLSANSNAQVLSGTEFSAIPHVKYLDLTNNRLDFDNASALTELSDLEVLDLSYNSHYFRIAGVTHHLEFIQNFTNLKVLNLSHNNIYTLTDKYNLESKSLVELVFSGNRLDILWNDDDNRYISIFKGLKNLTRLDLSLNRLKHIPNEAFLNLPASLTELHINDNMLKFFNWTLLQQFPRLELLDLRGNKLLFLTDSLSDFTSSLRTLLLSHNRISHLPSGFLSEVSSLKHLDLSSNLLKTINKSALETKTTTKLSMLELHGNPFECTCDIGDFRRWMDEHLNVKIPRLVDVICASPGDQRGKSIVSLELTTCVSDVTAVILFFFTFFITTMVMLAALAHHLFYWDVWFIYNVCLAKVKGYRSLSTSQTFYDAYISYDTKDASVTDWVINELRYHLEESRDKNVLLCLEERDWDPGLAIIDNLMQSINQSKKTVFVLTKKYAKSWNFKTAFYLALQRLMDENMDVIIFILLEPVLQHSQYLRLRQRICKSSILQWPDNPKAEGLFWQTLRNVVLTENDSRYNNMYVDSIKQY
Protocol: as §1, §2, §3

Row | SMILES | MEC to Induce Cytokine: IFN-alpha [1] [µM] | MEC to Induce Cytokine: IFN-gamma [1] [µM] | MEC to Induce Cytokine: TNF-alpha [1] [µM] | MEC to Produce TLR Activation: TLR 7 (human TLR7) [µM] | MEC to Produce TLR Activation: TLR 8 (human TLR8) [µM]
1 | CCOC[C@H](Cc1ccc(OCCO)cc1)n1cnc2c(N)nc3ccccc3c21 [Example 1, (S)-2-(4-(2-(4-amino-1H-imidazo[4,5-c]quinolin-1-yl)-3-ethoxypropyl)phenoxy)ethan-1-ol] | ≤0.01 | ≤0.01 | ≤0.01 | ≤0.01 | 1.1
2 | CCOC[C@H](Cc1ccc(OCCN)cc1)n1cnc2c(N)nc3ccccc3c21 [Example 2, (S)-1-(1-(4-(2-aminoethoxy)phenyl)-3-ethoxypropan-2-yl)-1H-imidazo[4,5-c]quinolin-4-amine] | ≤0.01 | ≤0.01 | ≤0.01 | ≤0.01 | 1.1

Source: patent US20230346954A1, “N-1 BRANCHED IMIDAZOQUINOLINES, CONJUGATES THEREOF, AND METHODS” (3M INNOVATIVE PROPERTIES COMPANY, priority 2020, published 2023)
